{"source": "patent US20060019971A1", "about": "“Treatment of cardiovascular disease with inhibitors of p38 kinase” (priority 2003, published 2006)", "key": {"IL-8 mRNA in HPBMCs": {"test_system": "IL-8 mRNA in HPBMCs", "assay": "IL-8 gene expression in HPBMCs, real-time PCR", "type": "cell-based, human", "details": "1 μM SD", "method": "8×10^5 HPBMCs were plated in 96-well. After 1 hour medium was removed and cells were incubated with or without 10 μg/ml of purified human CRP in serum-free RPMI 1640. In parallel experiments cells were treated with 10% FCS together with the CRP treatment. For the p38 antagonism, p38 inhibitor was added to a final concentration of 1 μM in the parallel treatment. After 6 hours conditioned medium were collected and IL-6 and IL-8 levels were determined by ELISA. […] 5×10^6 HPBMCs were plated in 6-well. After 1 hour medium was removed and cells were treated with vehicle or 1 μM p38 inhibitor in RPMI 1640 medium. After 1 hour cells were stimulated with 10% FCS only or 10 μg/ml CRP plus 10% FCS. After 2 hours RNA was extracted from the cells and IL-8 expression level was determined by real-time PCR as described in the Experimental section.\nCryopreserved human peripheral blood monocytes (HPBMCs, from Biowitker, Walkersvill, Md.) were thawed and washed twice in RPMI 1640. Cells were plated in tissue culture plates and incubated in 5% CO2 at 37 C. After 1 hr media were removed and cells were treated with various treatments. […]\nRNA was extracted from the cells using Qiagen RNA extraction kit according to the manufacturer's instruction. The expression of pro-inflammatory genes IL-1β, IL-6, IL-8, TNFα, COX-2, ET-1, TF were assessed by real-time PCR. […]"}, "[1]": {"test_system": "TNFα secretion from HPBMCs", "assay": "TNFα secretion from HPBMCs, ELISA", "type": "cell-based, human", "details": "1 μM SD, 6 hours", "method": "5×10^6 HPBMCs were plated in 6-well. After 1 hour medium was removed and cells were treated with vehicle or 1μM p38 inhibitor in RPMI 1640 medium. After 1 hour cells were stimulated with 10% FCS only or 10 μg/ml CRP plus 10% FCS. After 6 hours conditioned medium was collected and IL-1b and TNFa levels were determined by ELISA. […] 5×10^6 HPBMCs were plated in 6-well. After I hour medium was removed and cells were treated with vehicle or […] p38 inhibitor in RPMI 1640 medium. After 1 hour cells were stimulated with 10% FCS only or 10 μg/ml CRP plus 10% FCS. After 2 hours RNA was extracted from the cells and TNFa (c) and IL-1b (d) expression levels were determined by real-time PCR as described in the Experimental section. […]\nConditioned media from the treated cells were collected (6 to 20 hrs), and the level of secreted interleukin 6 (IL-6), interleukin 1 beta (IL-1 β), tumor necrosis factor alpha (TNFα), and interleukin 8 (IL-8) was determined by ELISA according to the manufacturer's instruction (Biosource International, Camarillo, Calif.). […]\nTNFα and IL-β are initial inflammatory cytokines produced when monocytes are activated during infalmmation. […] HPBMCs were incubated with either 10% FCS or CRP plus 10% FCS for 6 hours and secreted cytokines TNFα and IL-1β were measured by ELISA. […]"}}, "data": [{"smiles": "C[C@@H]1CN(Cc2ccc(F)cc2)[C@@H](C)CN1C(=O)c1cc2c(C(=O)C(=O)N(C)C)c[nH]c2cc1Cl", "note": "[Compound 162]", "values": [{"measurement": "inhibition of FCS invoked IL-8 expression", "setting": "IL-8 mRNA in HPBMCs", "result": "almost completely inhibited"}, {"measurement": "inhibition of CRP increased IL-8 mRNA level", "setting": "IL-8 mRNA in HPBMCs; at 6 hours", "result": "almost completely inhibited"}, {"measurement": "FCS induced TNFα secretion, sensitivity to p38 inhibition", "setting": "[1]; 10% FCS", "result": "sensitive"}, {"measurement": "inhibition of CRP-invoked TNFα secretion", "setting": "[1]; CRP plus 10% FCS", "result": "strongly inhibited"}]}]}
